The record followed here is US9283222B2 (priority 2006, dated 2016).

Where two headings read alike, the source gives them in different places.

The experiment has as its target Recombinant Human Poly(ADP-Ribose) Polymerase (PARP), PARP-1 (Homo sapiens (Human), UniProt P09874). The note with it: read-out: PARP-1 (Ki).
The mark [1] stands for this setting: Table 1, text calls the values EC50s.

Recombinant Human Poly(ADP-Ribose) Polymerase (PARP), PARP-1, sequence (P09874 whole entry): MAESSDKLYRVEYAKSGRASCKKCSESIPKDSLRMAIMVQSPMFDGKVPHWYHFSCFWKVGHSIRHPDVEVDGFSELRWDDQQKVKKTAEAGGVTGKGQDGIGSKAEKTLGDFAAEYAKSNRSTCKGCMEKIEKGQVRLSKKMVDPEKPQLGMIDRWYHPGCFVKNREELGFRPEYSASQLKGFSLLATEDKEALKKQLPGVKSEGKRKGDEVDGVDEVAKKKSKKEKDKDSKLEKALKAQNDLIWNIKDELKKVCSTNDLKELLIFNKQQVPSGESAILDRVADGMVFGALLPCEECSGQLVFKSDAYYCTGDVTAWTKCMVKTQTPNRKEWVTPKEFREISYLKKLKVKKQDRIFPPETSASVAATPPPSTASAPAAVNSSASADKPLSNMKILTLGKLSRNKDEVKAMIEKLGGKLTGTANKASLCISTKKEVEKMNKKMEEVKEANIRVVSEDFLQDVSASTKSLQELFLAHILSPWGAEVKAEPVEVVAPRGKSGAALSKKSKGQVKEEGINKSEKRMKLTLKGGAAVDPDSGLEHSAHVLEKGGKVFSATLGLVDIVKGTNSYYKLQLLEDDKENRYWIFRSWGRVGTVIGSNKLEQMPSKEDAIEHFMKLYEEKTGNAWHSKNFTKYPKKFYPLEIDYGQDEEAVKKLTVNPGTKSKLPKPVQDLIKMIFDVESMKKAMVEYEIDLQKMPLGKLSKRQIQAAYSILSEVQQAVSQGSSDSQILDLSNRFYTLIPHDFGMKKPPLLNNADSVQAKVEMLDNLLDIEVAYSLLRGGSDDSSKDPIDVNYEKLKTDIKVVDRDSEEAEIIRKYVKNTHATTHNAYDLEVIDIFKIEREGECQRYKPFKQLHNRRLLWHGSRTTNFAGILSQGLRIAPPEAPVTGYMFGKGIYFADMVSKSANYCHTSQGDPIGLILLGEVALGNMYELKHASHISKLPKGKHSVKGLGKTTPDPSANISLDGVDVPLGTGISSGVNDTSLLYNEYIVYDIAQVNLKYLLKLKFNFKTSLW

The Ki is a measure of affinity in units of concentration, obtained from inhibition or displacement. `O=C1CCN1c1cc(-c2n[nH]c(=O)c3c2CCCC3)ccc1F`: the Ki (Table 2, A2 is C1-alkyl versus no A2 (bond)) turned out to be 291 nM.
As for `CCN(CC)C(=O)C1CCCN(C(=O)c2cccc(Cc3n[nH]c(=O)c4c3CCCC4)c2)C1` (centres unmarked), the Ki (Table 3, H analogs versus para-F analogs) amounted to 27 nM.
For the compound `O=C(NCCN1CCCC1)c1cccc(Cc2n[nH]c(=O)c3c2CCCC3)c1` [Example 52, 3-((4-oxo-3,4,5,6,7,8-hexahydrophthalazin-1-yl)methyl)-N-(2-pyrrolidin-1-ylethyl)benzamide], under setting [1], the Ki was 13 nM.
Regarding `CC1CCCN1C(=O)c1cccc(Cc2n[nH]c(=O)c3c2CCCC3)c1` (centres unmarked) [Example 53, 4-(3-((2-methylpyrrolidin-1-yl)carbonyl)benzyl)-5,6,7,8-tetrahydrophthalazin-1(2H)-one], under setting [1], the Ki was determined as 10 nM.
`O=C(NN1CCCCCC1)c1cccc(Cc2n[nH]c(=O)c3c2CCCC3)c1` [Example 54, N-azepan-1-yl-3-((4-oxo-3,4,5,6,7,8-hexahydrophthalazin-1-yl)methyl)benzamide]: the Ki under setting [1] is 205 nM.
On the same count and under the same terms, next, `O=C(NC1CNC1)c1cccc(Cc2n[nH]c(=O)c3c2CCCC3)c1` [Example 56, N-azetidin-3-yl-3-((4-oxo-3,4,5,6,7,8-hexahydrophthalazin-1-yl)methyl)benzamide]: 5 nM; `O=C(NC1CCCNC1)c1cccc(Cc2n[nH]c(=O)c3c2CCCC3)c1` (centres unmarked) [Example 57, 3-((4-oxo-3,4,5,6,7,8-hexahydrophthalazin-1-yl)methyl)-N-piperidin-3-ylbenzamide]: 60 nM; `CN(C)c1ccc(NC(=O)c2cccc(Cc3n[nH]c(=O)c4c3CCCC4)c2)cc1` [Example 58, N-(4-(dimethylamino)phenyl)-3-((4-oxo-3,4,5,6,7,8-hexahydrophthalazin-1-yl)methyl)benzamide]: 51 nM.
With `CN1CCN(CCNC(=O)c2cccc(Cc3n[nH]c(=O)c4c3CCCC4)c2)CC1` [Example 59, N-(2-(4-methylpiperazin-1-yl)ethyl)-3-((4-oxo-3,4,5,6,7,8-hexahydrophthalazin-1-yl)methyl)benzamide], under setting [1], the Ki was found to be 24 nM.
The same measure, in the same setting: for `O=C(c1cccc(Cc2n[nH]c(=O)c3c2CCCC3)c1)N1CCN(C(=O)c2ccno2)CC1` [Example 60, 4-(3-((4-(isoxazol-5-ylcarbonyl)piperazin-1-yl)carbonyl)benzyl)-5,6,7,8-tetrahydrophthalazin-1(2H)-one] the value was 3 nM.
For `O=C(c1cccc(Cc2n[nH]c(=O)c3c2CCCC3)c1)N1CCC(c2ccccc2)CC1` [Example 61, 4-(3-((4-phenylpiperidin-1-yl)carbonyl)benzyl)-5,6,7,8-tetrahydrophthalazin-1(2H)-one], the inhibition constant Ki under setting [1] came to 6 nM.
`O=C(NCC1CCCCN1)c1cccc(Cc2n[nH]c(=O)c3c2CCCC3)c1` (centres unmarked) [Example 62, 3-((4-oxo-3,4,5,6,7,8-hexahydrophthalazin-1-yl)methyl)-N-(piperidin-2-ylmethyl)benzamide]: the inhibition constant (Ki) under setting [1] came to 42 nM.
Consider `O=C(NCC1CCNCC1)c1cccc(Cc2n[nH]c(=O)c3c2CCCC3)c1` [Example 63, 3-((4-oxo-3,4,5,6,7,8-hexahydrophthalazin-1-yl)methyl)-N-(piperidin-4-ylmethyl)benzamide], for which the Ki under setting [1] was 23 nM.
Consider `O=C(NCCN1CCCCC1)c1cccc(Cc2n[nH]c(=O)c3c2CCCC3)c1` [Example 64, 3-((4-oxo-3,4,5,6,7,8-hexahydrophthalazin-1-yl)methyl)-N-(2-piperidin-1-ylethyl)benzamide], for which, under setting [1], the Ki came out at 40 nM.
`CN1CC(NC(=O)c2cccc(Cc3n[nH]c(=O)c4c3CCCC4)c2)C1` [Example 65, N-(1-methylazetidin-3-yl)-3-((4-oxo-3,4,5,6,7,8-hexahydrophthalazin-1-yl)methyl)benzamide]: the inhibition constant (Ki) under setting [1] amounted to 82 nM.
On to `CNC(=O)c1cc(Cc2n[nH]c(=O)c3c2CCCC3)ccn1` [Example 67, N-methyl-4-((4-oxo-3,4,5,6,7,8-hexahydrophthalazin-1-yl)methyl)pyridine-2-carboxamide], for which the inhibition constant Ki under setting [1] amounted to 50 nM.
Still for that read-out and setting: for `CS(=O)(=O)c1nccc(Cc2n[nH]c(=O)c3c2CCCC3)n1` [Example 69, 4-((2-(methylsulfonyl)pyrimidin-4-yl)methyl)-5,6,7,8-tetrahydrophthalazin-1(2H)-one] the value was 40 nM; for `C[S+]([O-])c1nccc(Cc2n[nH]c(=O)c3c2CCCC3)n1` (centres unmarked) [Example 70, 4-((2-(methylsulfinyl)pyrimidin-4-yl)methyl)-5,6,7,8-tetrahydrophthalazin-1(2H)-one], 101 nM; for `CCNC(=O)c1cc(Cc2n[nH]c(=O)c3c2CCCC3)ccn1` [Example 75, N-ethyl-4-((4-oxo-3,4,5,6,7,8-hexahydrophthalazin-1-yl)methyl)pyridine-2-carboxamide], 56 nM.
Consider `CC(C)NC(=O)c1cc(Cc2n[nH]c(=O)c3c2CCCC3)ccn1` [Example 76, N-isopropyl-4-((4-oxo-3,4,5,6,7,8-hexahydrophthalazin-1-yl)methyl)pyridine-2-carboxamide], for which the Ki under setting [1] turned out to be 473 nM.
Same read-out and setting: for `O=C(NC1CCCCC1)c1cc(Cc2n[nH]c(=O)c3c2CCCC3)ccn1` [Example 77, N-cyclohexyl-4-((4-oxo-3,4,5,6,7,8-hexahydrophthalazin-1-yl)methyl)pyridine-2-carboxamide] the value was 195 nM; for `CN(CC1CCCCN1C)C(=O)c1cccc(Cc2n[nH]c(=O)c3c2CCCC3)c1` (centres unmarked) [Example 78, N-methyl-N-((1-methylpiperidin-2-yl)methyl)-3-((4-oxo-3,4,5,6,7,8-hexahydrophthalazin-1-yl)methyl)benzamide], 165 nM; for `CN1CCC(CNC(=O)c2cccc(Cc3n[nH]c(=O)c4c3CCCC4)c2)CC1` [Example 79, N-((1-methylpiperidin-4-yl)methyl)-3-((4-oxo-3,4,5,6,7,8-hexahydrophthalazin-1-yl)methyl)benzamide], 18 nM.
With `CNC(=O)c1cccc(Cc2n[nH]c(=O)c3c2CCCC3)n1` [Example 80, N-methyl-6-((4-oxo-3,4,5,6,7,8-hexahydrophthalazin-1-yl)methyl)pyridine-2-carboxamide], the Ki under setting [1] was 47 nM.
Still for that read-out and setting: for `CCNC(=O)c1cccc(Cc2n[nH]c(=O)c3c2CCCC3)n1` [Example 81, N-ethyl-6-((4-oxo-3,4,5,6,7,8-hexahydrophthalazin-1-yl)methyl)pyridine-2-carboxamide] the value was 123 nM; for `CC(C)NC(=O)c1cccc(Cc2n[nH]c(=O)c3c2CCCC3)n1` [Example 82, N-isopropyl-6-((4-oxo-3,4,5,6,7,8-hexahydrophthalazin-1-yl)methyl)pyridine-2-carboxamide], 691 nM.
In the case of `O=C(NC1CC1)c1cccc(Cc2n[nH]c(=O)c3c2CCCC3)n1` [Example 83, N-cyclopropyl-6-((4-oxo-3,4,5,6,7,8-hexahydrophthalazin-1-yl)methyl)pyridine-2-carboxamide], under setting [1], the Ki was found to be 126 nM.
`O=C(NC1CCCCC1)c1cccc(Cc2n[nH]c(=O)c3c2CCCC3)n1` [Example 84, N-cyclohexyl-6-((4-oxo-3,4,5,6,7,8-hexahydrophthalazin-1-yl)methyl)pyridine-2-carboxamide]: under setting [1], the Ki was determined as 617 nM.
`COC(=O)c1ncccc1Cc1n[nH]c(=O)c2c1CCCC2` [Example 85, methyl 3-((4-oxo-3,4,5,6,7,8-hexahydrophthalazin-1-yl)methyl)pyridine-2-carboxylate]: the Ki under setting [1] is 396 nM.
Consider `COC(=O)c1ccc(Cc2n[nH]c(=O)c3c2CCCC3)cn1` [Example 86, methyl 5-((4-oxo-3,4,5,6,7,8-hexahydrophthalazin-1-yl)methyl)pyridine-2-carboxylate], for which the Ki under setting [1] stood at 390 nM.
The same measure, in the same setting: next, `Nc1cccc(Cc2n[nH]c(=O)c3c2CCCC3)c1` [Example 89, 4-(3-aminobenzyl)-5,6,7,8-tetrahydrophthalazin-1(2H)-one]: 111 nM.
As for `O=c1[nH]nc(Cc2cccs2)c2c1CCCC2` [Example 91, 4-(thien-2-ylmethyl)-5,6,7,8-tetrahydrophthalazin-1(2H)-one], the inhibitory constant (Ki) under setting [1] was 70 nM.
Take `COC(=O)c1ccc(Cc2n[nH]c(=O)c3c2CCCC3)s1` [Example 92, methyl 5-((4-oxo-3,4,5,6,7,8-hexahydrophthalazin-1-yl)methyl)thiophene-2-carboxylate]: under setting [1], the Ki amounted to 167 nM.
The same measure, in the same setting: for `CNC(=O)c1ccc(Cc2n[nH]c(=O)c3c2CCCC3)cn1` [Example 93, N-methyl-5-((4-oxo-3,4,5,6,7,8-hexahydrophthalazin-1-yl)methyl)pyridine-2-carboxamide] the value was 840 nM; for `CCNC(=O)c1ccc(Cc2n[nH]c(=O)c3c2CCCC3)cn1` [Example 94, N-ethyl-5-((4-oxo-3,4,5,6,7,8-hexahydrophthalazin-1-yl)methyl)pyridine-2-carboxamide], 856 nM; for `CNC(=O)c1ncccc1Cc1n[nH]c(=O)c2c1CCCC2` [Example 95, N-methyl-3-((4-oxo-3,4,5,6,7,8-hexahydrophthalazin-1-yl)methyl)pyridine-2-carboxamide], 1260 nM.
Regarding `CCNC(=O)c1ncccc1Cc1n[nH]c(=O)c2c1CCCC2` [Example 96, N-ethyl-3-((4-oxo-3,4,5,6,7,8-hexahydrophthalazin-1-yl)methyl)pyridine-2-carboxamide], the Ki under setting [1] was determined as 2610 nM.
`CN(C)S(=O)(=O)Nc1cccc(Cc2n[nH]c(=O)c3c2CCCC3)c1` [Example 97, N,N-dimethyl-N′-(3-((4-oxo-3,4,5,6,7,8-hexahydrophthalazin-1-yl)methyl)phenyl)sulfamide]: under setting [1], the inhibitory constant (Ki) worked out at 390 nM.
Turning to `O=C(CCN1CCCCC1)Nc1cccc(Cc2n[nH]c(=O)c3c2CCCC3)c1` [Example 98, N-(3-((4-oxo-3,4,5,6,7,8-hexahydrophthalazin-1-yl)methyl)phenyl)-3-piperidin-1-ylpropanamide], the inhibitory constant (Ki) under setting [1] is 286 nM.
Turning to `CCCC(=O)Nc1ccc(Cl)c(Cc2n[nH]c(=O)c3c2CCCC3)c1` [Example 99], the Ki under setting [1] was 44 nM.
On the same count and under the same terms, for `O=C1CCCN1c1cccc(Cc2n[nH]c(=O)c3c2CCCC3)c1` [Example 100, 4-(3-(2-oxopyrrolidin-1-yl)benzyl)-5,6,7,8-tetrahydrophthalazin-1(2H)-one] the value was 39 nM.
